Literature values in US6444681B1, “Methods and compositions for treating Raynaud's Phenomenon and scleroderma” (The Ohio State University Research Foundation, priority 2000, dated 2002).

Molecular target: T1, α-2A (Homo sapiens, UniProt P08913)
T1 sequence (P08913 1-465): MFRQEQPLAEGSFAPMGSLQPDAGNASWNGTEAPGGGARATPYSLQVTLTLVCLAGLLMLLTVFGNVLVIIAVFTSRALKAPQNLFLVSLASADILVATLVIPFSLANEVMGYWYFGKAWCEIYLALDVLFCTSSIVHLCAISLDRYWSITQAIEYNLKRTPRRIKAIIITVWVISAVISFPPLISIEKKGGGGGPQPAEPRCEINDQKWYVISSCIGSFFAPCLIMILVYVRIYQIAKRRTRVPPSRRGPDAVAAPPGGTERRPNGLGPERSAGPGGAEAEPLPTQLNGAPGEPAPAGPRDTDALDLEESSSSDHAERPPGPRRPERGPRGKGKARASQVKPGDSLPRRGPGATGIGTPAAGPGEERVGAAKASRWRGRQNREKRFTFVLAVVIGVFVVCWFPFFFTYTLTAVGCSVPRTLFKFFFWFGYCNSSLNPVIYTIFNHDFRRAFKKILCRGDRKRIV
Conditions: cited from earlier work

For `CN1CCC2(CCN3CCc4c(oc5ccccc45)C3C2)N(C)C1=O` (stereo not shown) [MK 912], the Kd is listed as 1.8 nM.
